Experimental data taken from article PMC6669322, “Small Molecule Binding to Alzheimer Risk Factor CD33 Promotes Aβ Phagocytosis” (iScience, 2019).

Target: T1, CD33 Y127A (Homo sapiens, UniProt P20138, Y127A)
T1 construct: human CD33 ORF (NM_001772.3), lacking its signal peptide; expressed in transfected cells; host or cells: HEK293T, transient, pT8-SNAP vector
Test: SNAP-tag homogeneous time-resolved fluorescence binding assay, CD33 Y127A
Conditions: Y127A variant, in words
Method: Figure 3 P22 Binding to CD33 Wild-Type and Mutants (A) An example of affinity analysis for 1–243 μM (3-fold dilutions) of P22 binding to immobilized CD33^C36S. Data obtained in duplicate using single-cycle analysis and fit to a steady-state binding model to determine the equilibrium binding constant. (B) An example of affinity analysis of P22 binding to immobilized CD33 wild-type (WT) as per example in (A). (C) Sensorgram data for 0.01–9 μM (3-fold dilutions) of CD33^C36S binding to immobilized P22. Data obtained in triplicate using single concentration cycles and fit to a 1:1 binding model for kinetic analysis. […]
We then used our structural data to design mutations of key residues interacting with P22 to assess which interactions were the most important for binding affinity. The residues were mutated into alanine, and the effect of these mutations on P22 binding affinity was assessed using a SNAP-tag homogeneous time-resolved fluorescence binding assay (see Transparent Methods and Figures 3E–3G). […]
HEK293T cells were cultured in DMEM (ThermoFisher Scientific # 11965092) containing 10% FBS (Hyclone # SH30070.03) and 1% Penicillin-Streptomycin (ThermoFisher Scientific # 15140122) and transfected using Fugene HD (Promega # E2312) in 10 cm plates. […] The cells were counted, centrifuged and resuspended in PBS at a concentration of 1,000 cells/μL and 10 μL were plated into each well. […]

T1 sequence (P20138 18-364 Y127A): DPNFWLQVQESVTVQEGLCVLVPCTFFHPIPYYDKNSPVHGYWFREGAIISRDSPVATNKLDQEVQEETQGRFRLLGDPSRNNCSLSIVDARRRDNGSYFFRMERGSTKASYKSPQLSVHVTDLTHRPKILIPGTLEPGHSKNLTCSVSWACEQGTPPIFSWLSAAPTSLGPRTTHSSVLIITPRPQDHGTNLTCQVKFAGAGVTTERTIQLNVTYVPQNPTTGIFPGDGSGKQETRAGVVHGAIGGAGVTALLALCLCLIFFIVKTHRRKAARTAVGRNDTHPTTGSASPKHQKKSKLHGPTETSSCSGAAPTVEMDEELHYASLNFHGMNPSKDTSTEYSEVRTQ

specific binding (total binding – binding in presence of 100 μM non-labeled P22): completely abolished
SMILES: Cc1cc(C(=O)NC[C@@H](O)[C@@H](O)[C@@H]2O[C@@](OC[C@H]3O[C@@H](O[C@H]4[C@H](O)[C@@H](O)[C@H](OCCN)O[C@@H]4CO)[C@H](O)[C@@H](O)[C@H]3O)(C(=O)O)C[C@H](O)[C@H]2NC(=O)Cn2cc(C3CCCCC3)nn2)cc(C)c1O [P22, β-D-Glucopyranoside, 2-aminoethyl O-[N-[2-(4-cyclohexyl-1H-1,2,3-triazol-1-yl)acetyl]-9-deoxy-9-[(4-hydroxy-3,5-dimethylbenzoyl)amino]-α-neuraminosyl] (2→6)-O-β-D-galactopyranosyl-(1→4)-]
